Test systems include OVCAR-4 ovarian; OVCAR-8 ovarian; SW-620 colon; OVCAR-5 ovarian; TK-10 renal; NCI-H23 lung; BT-549 breast; CAKI-1 renal; LOX IMVI melanoma.
Holding throughout (assay): DTP human tumour cell line panel, 48 h

By TGI is commonly meant the concentration at which net growth stops.

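Grown in 96-well plates, cells were treated for 48 hours with each compound at five concentrations. Insufficient inhibition: endpoint recorded as highest concentration tested. TGI is the concentration that stops growth completely.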

Take `CCOC(=O)NC(Nc1ccc(F)cc1)(C(=O)OCC)C(F)(F)F` (stereo unspecified): the TGI in the experiment with OVCAR-4 ovarian, in the experiment on OVCAR-8 ovarian, with SW-620 colon, with OVCAR-5 ovarian, with TK-10 renal and in the experiment with NCI-H23 lung was over 100 µM throughout. Besides, the TGI with BT-549 breast, in the experiment on CAKI-1 renal and in the experiment with LOX IMVI melanoma was over 100 µM each time.

As to `C=C1C(=O)O[C@H]2C1C[C@@H](OC(C)=O)/C(C)=C/CC[C@@]1(C)O[C@H]21` (stereo partly specified), the TGI came out at 28.9 µM in the experiment on OVCAR-4 ovarian; 32.5 µM in the experiment on OVCAR-8 ovarian; 20.4 µM in the experiment on SW-620 colon; 31.5 µM in the experiment with OVCAR-5 ovarian; 17.4 µM in the experiment on TK-10 renal; 37.2 µM in the experiment with NCI-H23 lung. Further, the concentration for total growth inhibition (TGI) in the experiment with BT-549 breast came to 19 µM; in the experiment on CAKI-1 renal, 22.1 µM; with LOX IMVI melanoma, 19.1 µM.

With `COc1ccccc1/C=C/C1=NN(c2cccc(S(=O)(=O)O)c2)C2(C1)C(Cl)C(=O)N2c1nc2ccccc2s1` (stereo unspecified), the TGI in the experiment with OVCAR-4 ovarian, with OVCAR-8 ovarian, in the experiment with SW-620 colon, in the experiment on OVCAR-5 ovarian, in the experiment with TK-10 renal and with NCI-H23 lung was over 100 µM in each case. The results for the TGI in the experiment on BT-549 breast, in the experiment with CAKI-1 renal and in the experiment on LOX IMVI melanoma were over 100 µM, over 74.3 µM and over 67 µM, respectively.

Consider `CCCSc1ccc2[nH]c(N3C(=O)/C(=C/c4ccc(SC)cc4)N=C3c3ccccc3)cc2c1`, for which the TGI in the experiment on OVCAR-4 ovarian, in the experiment on OVCAR-8 ovarian, in the experiment with SW-620 colon, in the experiment on OVCAR-5 ovarian, with TK-10 renal and in the experiment on NCI-H23 lung was over 50 µM throughout. In addition, the concentration for total growth inhibition (TGI) in the experiment on BT-549 breast, with CAKI-1 renal and in the experiment with LOX IMVI melanoma was over 50 µM in each case.

For `O=C(c1ccccc1)N1CCC(CC2(c3cc4ccccc4[nH]3)OCCO2)CC1`, the TGI in the experiment with OVCAR-4 ovarian, in the experiment on OVCAR-8 ovarian, in the experiment on SW-620 colon, in the experiment on OVCAR-5 ovarian, in the experiment with TK-10 renal and in the experiment on NCI-H23 lung was over 100 µM in each case. In addition, the TGI with BT-549 breast is over 100 µM; in the experiment with CAKI-1 renal it was over 100 µM; in the experiment on LOX IMVI melanoma, 35.6 µM.

For the compound `C=C(C(=O)OC)[C@@H]1C[C@@H](OC(C)=O)C2=C[C@H](C[C@@]3(C)O[C@@H]3C3=CC(C)=C(O3)[C@H]1OC(C)=O)OC2=O`, the TGI was over 100 µM in the experiment with OVCAR-4 ovarian; over 100 µM in the experiment with OVCAR-8 ovarian; 28.4 µM in the experiment with SW-620 colon; 36.6 µM in the experiment on OVCAR-5 ovarian; 31.7 µM in the experiment on TK-10 renal; 35.5 µM in the experiment with NCI-H23 lung. Further, the TGI in the experiment on BT-549 breast was 31.3 µM; in the experiment with CAKI-1 renal it was 21.2 µM; in the experiment on LOX IMVI melanoma, 41.8 µM.

Turning to `NC1CCC(N(CC(=O)O)CC(=O)O)C(N(CC(=O)O)CC(=O)O)C1` (stereo unspecified), the TGI in the experiment on OVCAR-4 ovarian, with OVCAR-8 ovarian, in the experiment on SW-620 colon, in the experiment with OVCAR-5 ovarian, with TK-10 renal and in the experiment on NCI-H23 lung was over 100 µM in each case. For the same compound, the TGI in the experiment on BT-549 breast, with CAKI-1 renal and with LOX IMVI melanoma was over 100 µM throughout.

Consider `O=C1CCc2ccc(O)c(c2)Oc2ccc(cc2)C(Sc2ccccc2)CCO1` (stereo unspecified), for which the TGI in the experiment on OVCAR-4 ovarian came to 26.1 µM; with OVCAR-8 ovarian, 37.3 µM; in the experiment on SW-620 colon it was 34.9 µM; in the experiment with OVCAR-5 ovarian, 35.3 µM; in the experiment with TK-10 renal it was 31.6 µM; with NCI-H23 lung it was 27.3 µM. Also, the TGI was found to be 28.7 µM with BT-549 breast, 41.1 µM with CAKI-1 renal and 25.8 µM in the experiment on LOX IMVI melanoma.

For `CCN(CC)CCN(C)c1ccc(CO)c2c1C(=O)c1ccccc1S2=O` (stereo unspecified), the TGI with OVCAR-4 ovarian was found to be 11.7 µM; in the experiment with OVCAR-8 ovarian it was 3.5 µM; in the experiment on SW-620 colon it was 3.63 µM; with OVCAR-5 ovarian, 24.5 µM; in the experiment on TK-10 renal it was 32.3 µM; in the experiment with NCI-H23 lung it was 8.29 µM. In addition, the values for the TGI with BT-549 breast, with CAKI-1 renal and with LOX IMVI melanoma were 26.7 µM, 26.2 µM and 3.66 µM, respectively.

For the compound `CCCCc1ccc(Nc2nc(OC)c3ncn(C4CC(O)C(CO)O4)c3n2)cc1` (stereo unspecified), the TGI with OVCAR-4 ovarian was 35.9 µM; in the experiment on OVCAR-8 ovarian, 35.2 µM; in the experiment on SW-620 colon it was 39.8 µM; with OVCAR-5 ovarian, over 100 µM; in the experiment with TK-10 renal, 50.1 µM; with NCI-H23 lung, 35.3 µM. For the same compound, the TGI came out at 38.1 µM in the experiment on BT-549 breast, 3.49 µM with CAKI-1 renal and 31.4 µM in the experiment on LOX IMVI melanoma.

For the compound `CC(C)=CCC[C@@H](C)C1=C(O)C(Nc2ccccc2Cl)=C(C)C(=O)C1=O`, the total growth inhibition concentration (TGI) in the experiment on OVCAR-4 ovarian was over 75 µM; in the experiment with OVCAR-8 ovarian, over 41 µM; with SW-620 colon, over 75 µM; in the experiment on OVCAR-5 ovarian, over 75 µM; in the experiment with TK-10 renal, over 75 µM; in the experiment with NCI-H23 lung, 55.1 µM. For the same compound, the TGI in the experiment on BT-549 breast is over 75 µM; in the experiment on CAKI-1 renal it was over 55 µM; with LOX IMVI melanoma it was over 75 µM.

For `CC(=O)NCC1OC2COC(c3ccccc3)OC2C(NC(=O)c2ccccc2)C1OC(=O)c1ccccc1` (stereo unspecified), the TGI in the experiment on OVCAR-4 ovarian, with OVCAR-8 ovarian, in the experiment with SW-620 colon, in the experiment with OVCAR-5 ovarian, in the experiment on TK-10 renal and in the experiment on NCI-H23 lung was over 100 µM in each case. In addition, the TGI with BT-549 breast, in the experiment on CAKI-1 renal and with LOX IMVI melanoma was over 100 µM in each case.

Take `CC(C)C(OC(=O)c1ccc(NCC2=CC(=O)C=CC2=O)cc1)C(C)C`: the TGI is 11.4 µM in the experiment with OVCAR-4 ovarian; 12.9 µM in the experiment with OVCAR-8 ovarian; 27.4 µM in the experiment with SW-620 colon; 36.4 µM in the experiment with OVCAR-5 ovarian; 14.4 µM in the experiment on TK-10 renal; 20.2 µM in the experiment with NCI-H23 lung. Moreover, the TGI was determined as 15.1 µM with BT-549 breast, 3.02 µM in the experiment on CAKI-1 renal and 18 µM with LOX IMVI melanoma.

As for `O=C1Nc2nccnc2C(=O)N2CCC[C@@H]12`, the TGI in the experiment on OVCAR-4 ovarian, in the experiment on OVCAR-8 ovarian, in the experiment with SW-620 colon, in the experiment on OVCAR-5 ovarian, in the experiment with TK-10 renal and in the experiment on NCI-H23 lung was over 100 µM in each case. The TGI with BT-549 breast, in the experiment with CAKI-1 renal and in the experiment on LOX IMVI melanoma was over 100 µM throughout.

The record behind these values is PubChem BioAssay (NCI).
